The Cmax is the highest concentration seen after dosing. One may read the half-life as the time needed for the level to fall by half in the phase considered. As usually defined, the Kd is a measure of binding affinity in units of concentration.

The target of data set [1] is T1, Hb (Homo sapiens, UniProt P69905). The data set is described as follows: Hb modification (drug-adduct formation) in SS blood suspensions by cation-exchange HPLC. The format is binding. Further details: Blood suspensions from subjects with homozygous SCD; from tissue; host or cells: blood suspensions (20% hematocrit) from donors with homozygous SCD; lysates of the treated red cells. To be noted: 2 mM, 4 biological replicates. The protocol: All compounds (Comp 1-13) and comparator molecules (VZHE-039, PP-14, INN-310, and Voxelotor) were evaluated following established procedures. Blood samples from individual donors with homozygous SCD (obtained with informed consent) were diluted using Hemox buffer solution with the addition of glucose (10 mM) and BSA (0.2%) to adjust hematocrit of the blood suspensions to 20%, which standardizes the procedure to normalize the ratio of RBCs to drug, for assay consistency and reproducibility. Briefly, blood suspensions were incubated under room air in the presence of various concentrations of test compounds (0-2 mM) at 37° C. for 1 hour in 96-well round bottom plates. Subsequently, the suspensions were incubated with a hypoxic gas mixture (2.5% Oxygen gas/balance Nitrogen gas) at 37° C. for up to 2 hours prior to fixation with 2% glutaraldehyde solution without exposure to air. The fixated blood aliquots were evaluated by microscopic morphological analysis (image analysis on Image J software) to identify the proportion of sickled and non-sickled RBCs, and sickle inhibition calculated based on the % change from negative control (DMSO).
The residual samples were then washed in phosphate-buffered saline, and hemolyzed in hypotonic lysis buffer, with or without sodium borohydride (50 mM). Aliquots obtained from the lysates with or without sodium borohydride (to reduce Schiff base adducts) were also assessed for level of Hb modification (drug-adduct formation) by cation-exchange HPLC (Hitachi D-7000 Series, Hitachi Instruments, Inc., San Jose, CA) with a weak cation-exchange column (Poly CAT A: 50 mm×4.6 mm, Poly LC, Inc., Columbia, MD). Hemoglobin isotype peaks are eluted with a linear gradient of phase B from 0% to 80% at A410 nm (Mobile Phase A: 40 mM Bis-Tris, 2 mM KCN, pH 6.9; Phase B: 40 mM Bis-Tris, 2 mM KCN, 0.2 M sodium chloride, pH 6.55). Clarified lysate from normal human adult […] (Hb A), as well as commercial standards containing approximately equal amounts of Hb F, A, S and C (Helena Laboratories, Beaumont, TX), were utilized as reference isotypes. Reduced samples were used to assess “fixed adduct” formation (dependent on RBC membrane permeability), whereas non-reduced samples assessed drug-adduct formation independent of drug permeability.
Target sequence in this assay (P69905 2-142): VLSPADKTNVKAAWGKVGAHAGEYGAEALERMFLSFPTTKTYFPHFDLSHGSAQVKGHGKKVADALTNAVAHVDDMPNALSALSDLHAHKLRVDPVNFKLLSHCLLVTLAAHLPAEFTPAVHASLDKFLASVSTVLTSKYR
Target sequence in this assay (P68871 with tags, fused parts or gaps E7V partner): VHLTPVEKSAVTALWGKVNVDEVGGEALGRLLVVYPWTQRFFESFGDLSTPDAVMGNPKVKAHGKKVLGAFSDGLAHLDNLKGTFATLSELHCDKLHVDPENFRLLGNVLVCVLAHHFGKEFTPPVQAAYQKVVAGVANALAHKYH

Data set [2] can be described thus: Single-dose oral pharmacokinetics in rats. It counts as in vivo, Sprague Dawley rats. To be noted: Sprague Dawley, rat; single oral dose 100 mg/kg, male rats, whole blood. The protocol: Single doses of each compound were administered as oral suspensions by gavage in 0.5% carboxy methylcellulose at 100 mg/kg. Whole blood levels were collected for at least 72 hours after dose administration. Bioanalyses were performed with liquid chromatography-tandem mass spectrometry […].
Single-dose pharmacokinetics (PK) in male Sprague Dawley (SD) rats (n=4) were assessed for each compound, and the maximum or peak whole blood concentration and area under the curve are shown in Table 5.

Data set [3] can be described thus: 14-day repeat-dose safety (clinical observations, histopathology) in rats. It counts as in vivo, SD rats. To be noted: for safety in non-clinical toxicology: above anticipated therapeutic drug levels; for clinical or histopathologic changes after 14 days of exposure: oral 100 mg/kg once daily for 14 days, rats. The protocol: (§1) Repeat doses of each compound were administered once daily as oral suspensions by gavage in 0.5% carboxy methylcellulose for 14 days at 100 mg/kg. Whole blood was collected at 7 time-points for up to 24 hours during the final dosing interval on Day 14. Clinical observations, body weights, and food consumption were recorded throughout the 14 day study. Clinical chemistry and hematologic parameters were assessed, and histopathology was performed on organs after 14 days of exposure to study drug.
(§2) Repeat oral doses of each compound were administered by oral gavage for 14 days to male and female SD rats (n=3). […] Steady state exposures for the final dosing interval on Day 14 were similar to total compound exposure from single-dose PK.

Data set [4] can be described thus: 14-day repeat-dose oral pharmacokinetics in rats. The format is in vivo. To be noted: SD, rat, whole blood, repeat oral doses 100 mg/kg for 14 days. The protocol:
as §1, §2

Data set [5] addresses T1, Hb. The data set is described as follows: Drug partitioning studies, fixed and unfixed Hb adducts in non-sickling AA blood. The format is cell-based. Also on record: Hemoglobin modification, studies using non-sickling AA blood; from tissue; host or cells: non-sickling (AA) human blood, red blood cells. To be noted: 2 mM; for Fixed Adducts (%) / Unfixed Adduct (%): 6 biological replicates; for Partitioning Ratio (%): fixed relative to unfixed adducts. The protocol: RBC partitioning studies were conducted both for SS RBCs following sickling studies above, or as separate independent studies with non-sickle blood. Briefly, aliquots of blood samples, which had been incubated with test molecules, were lysed either in deionized water (un-fixed), or in water containing 50 mM sodium borohydride (fixed). Samples were subjected to cation exchange HPLC analyses, as described above. Modified […] (Hb adducts) was determined as a proportion of total Hb in each sample, and partitioning ratio was determined as the relative fraction of Hb modification of fixed samples compared to corresponding non-fixed samples. The partitioning ratio is the relative fraction of Hb that was modified intracellularly by molecules that permeated the RBC membrane, as compared to unfixed adducts which reflect Hb binding without RBC membrane permeation.
Target sequence in this assay (P69905 2-142 limits assumed): as the sequence (P69905 2-142) above
Target sequence in this assay (P68871 2-147 partner limits assumed): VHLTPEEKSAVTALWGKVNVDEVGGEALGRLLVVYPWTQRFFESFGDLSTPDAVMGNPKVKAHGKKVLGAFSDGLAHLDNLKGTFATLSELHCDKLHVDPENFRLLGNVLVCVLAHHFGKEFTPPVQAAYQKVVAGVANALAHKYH

Data set [6] concerns the target T1, Hb. Description: Dose-dependent P50 shift in non-sickling human blood. The format is cell-based. To be noted: compared to Voxelotor at equivalent drug-Hb occupancy levels. Also on record: Hemoglobin modification, studies using non-sickling AA blood; from tissue; host or cells: non-sickling (AA) human blood, red blood cells. The protocol: Non-sickling human blood was incubated with test compounds at 0.25-2 mM concentrations at 37° C. for 1 hour in 96-well round bottom plates. At conclusion, RBCs were washed once with PBS, followed by lysis with deionized water. Approximately 100 μl aliquots of individual lysates were added to 3 mL of 0.1M potassium phosphate buffer, pH 7.0 in a cuvette and subjected to hemoximetry analysis using a Hemox™ Analyzer (TCS Scientific Corp.) as previously described. Change in p50 values (Δp50) was calculated by subtracting the p50 values of treated samples from the value of the control sample and expressing the difference as a percentage of control p50 values.
Target sequence in this assay (P69905 2-142 limits assumed): as the sequence (P69905 2-142) above
Target sequence in this assay (P68871 2-147 partner limits assumed): as the sequence (P68871 2-147 partner limits assumed) above

Data set [7] concerns RBCs from donors with homozygous SCD. The data set is described as follows: Oxygen-independent sickle inhibition in SS blood suspensions under anoxia (100% nitrogen). It counts as cell-based, human. To be noted: anoxia. The protocol:
To establish oxygen-independent sickle inhibition, the incubation chamber was subsequently opened and exposed to room air for 15 minutes to ensure complete re-oxygenation and reversal of the sickled cells to normal round cells. Reversal was confirmed by microscopy. The incubation chamber was then closed, and the assay was repeated with incubation in 100% nitrogen gas for 1 hour (for screening), or up to 2.5 h (for time-course studies), with collection and fixation of blood aliquots at defined intervals. Aliquot samples were again subjected to microscopic morphological analysis of bright field images to identify the proportion of sickled and non-sickled cells, and sickle inhibition calculated.

Data set [8] has as its target T1, Hb. The data set is described as follows: Affinity (KD) for Hb. The format is binding.
Target sequence in this assay (P69905 2-142 limits assumed): as the sequence (P69905 2-142) above
Target sequence in this assay (P68871 2-147 partner limits assumed): as the sequence (P68871 2-147 partner limits assumed) above
The conditions of data set [9]: patients with SCD, most patients; cited from earlier work.
[10] abbreviates: female rats, read-out: AUC0-∞ (female).
[11] abbreviates: female rats, read-out: Cmax (female).
Where [12] appears, read: male rats, read-out: AUC0-∞ (male).
The mark [13] stands for this setting: male rats, read-out: Cmax (male).

Several values for one entry are separate records, joined by “and”; a condition that tells them apart may be missing. Equal values may be shown once.

Consider `O=Cc1c(O)cccc1OCc1cccnc1` [Comp 1, 2-hydroxy-6-(pyridin-3-ylmethoxy)benzaldehyde], for which the “Hb Modification (%)” value at Hb [1] was 95.8 ± 6.2%. Further, in [2], the AUC(0-inf) is 4e+06 ng·h/mL and 17400 µM·h; the Cmax is 211000 ng/mL and 919 µM; the half-life is 5 h. For the same compound, in [3], the “safety in non-clinical toxicology” value was “without hepatotoxicity” and the “clinical or histopathologic changes after 14 days of exposure” value (“clinical or histopathologic changes” below) is given as “No clinical or histopathologic changes”. Besides, the AUC(0-inf) in data set [4] (setting [10]) is 1.9e+06 ng·h/mL and 8080 µM·h. Besides, in [4] (setting [11]), the Cmax is 122000 ng/mL and 534 µM. Further, the AUC(0-inf) in [4] (setting [12]) is 2.4e+06 ng·h/mL and 10500 µM·h. The Cmax in [4] (setting [13]) is 161000 ng/mL and 703 µM. On Hb [5], the “Fixed Adducts (%)” value is given as 96.0 ± 1.9%, the “Unfixed Adduct (%)” value was found to be 97.4 ± 2.8% and the “Partitioning Ratio (%)” value came to 98.6 ± 2.8%. For the same compound, the “change in p50 of Hb in human blood (in words)” value (“change in p50 of Hb” below) on Hb [6] is listed as “relatively weak changes in p50”. Moreover, in data set [7], the “polymer destabilizing effect / sickle inhibition in anoxia (in words)” value is “most potent and sustained polymer destabilizing effects observed to date”. In addition, the Kd at Hb [8] came out at 60 µM.
`O=Cc1c(O)cccc1OCc1ccccn1` [Comp 2, 2-hydroxy-6-(pyridin-2-ylmethoxy)benzaldehyde]: at Hb [1], the “Hb Modification (%)” value came to 95.5 ± 5.7%. Further, in [2], the AUC(0-inf) was 4.5e+06 ng·h/mL and 19800 µM·h; the Cmax was 220000 ng/mL and 958 µM; the half-life was 9.7 h. In data set [3], the “safety in non-clinical toxicology” value is “without hepatotoxicity” and the “clinical or histopathologic changes” value is reported as “No clinical or histopathologic changes”. Also, the AUC(0-inf) in data set [4] (setting [10]) was 4.9e+06 ng·h/mL and 21500 µM·h. Further, the Cmax in data set [4] (setting [11]) is 254000 ng/mL and 1.11 mM. For the same compound, the AUC(0-inf) in data set [4] (setting [12]) is 4.7e+06 ng·h/mL and 20400 µM·h. Further, the Cmax in [4] (setting [13]) is 254000 ng/mL and 1.11 mM. For the same compound, on Hb [5], the “Fixed Adducts (%)” value is 95.2 ± 2.3%, the “Unfixed Adduct (%)” value is 96.3 ± 2.6% and the “Partitioning Ratio (%)” value came to 98.9 ± 2.9%. Moreover, at Hb [6], the “change in p50 of Hb” value is listed as “relatively weak changes in p50”. For the same compound, the “polymer destabilizing effect / sickle inhibition in anoxia (in words)” value in data set [7] is “most potent and sustained polymer destabilizing effects observed to date”.
In the case of `O=Cc1c(O)cccc1OCc1ncccc1F` [Comp 5, 2-((3-fluoropyridin-2-yl)methoxy)-6-hydroxybenzaldehyde], the “Hb Modification (%)” value on Hb [1] was 98.2 ± 2.5%. In addition, in data set [2], the AUC(0-inf) was 3e+06 ng·h/mL and 12000 µM·h; the Cmax was 86000 ng/mL and 348 µM; the half-life was 8.8 h. In [3], the “safety in non-clinical toxicology” value is listed as “without hepatotoxicity” and the “clinical or histopathologic changes” value is “No clinical or histopathologic changes”. For the same compound, the AUC(0-inf) in data set [4] (setting [10]) was 5.1e+06 ng·h/mL and 20600 µM·h. In addition, the Cmax in data set [4] (setting [11]) was 246000 ng/mL and 993 µM. Also, the AUC(0-inf) in [4] (setting [12]) was 4.2e+06 ng·h/mL and 17100 µM·h. The Cmax in [4] (setting [13]) is 211000 ng/mL and 854 µM. Moreover, on Hb [5], the “Fixed Adducts (%)” value is recorded as 93.1 ± 3.3%, the “Unfixed Adduct (%)” value worked out at 95.8 ± 3.3% and the “Partitioning Ratio (%)” value was 97.2 ± 3.2%. For the same compound, the “change in p50 of Hb” value on Hb [6] is on record as “relatively weak changes in p50”.
For the compound `O=Cc1c(O)cccc1OCc1cccc(CO)n1` [VZHE-039, reference compound], at Hb [1], the “Hb Modification (%)” value was determined as 90.7 ± 9.9%. The AUC(0-inf) in data set [2] is 2.3e+06 ng·h/mL and 8780 µM·h; in [4] (setting [10]), 3.2e+06 ng·h/mL and 12200 µM·h; in data set [4] (setting [12]), 3e+06 ng·h/mL and 11600 µM·h. The Cmax in [2] is 102000 ng/mL and 394 µM; in data set [4] (setting [11]), 232000 ng/mL and 894 µM; in data set [4] (setting [13]) it was 195000 ng/mL and 753 µM. Also, the half-life in [2] is 8.4 h. Further, the “clinical or histopathologic changes” value in data set [3] is “clinical and histopathologic changes in the liver, including hepatocyte necrosis”. Besides, the “Fixed Adducts (%)” value on Hb [5] was found to be 90.9 ± 3.4%. For the same compound, the “Unfixed Adduct (%)” value at Hb [5] was 92.4 ± 5.6%. In addition, the “Partitioning Ratio (%)” value at Hb [5] is reported as 98.5 ± 4.3%. Binding at Hb [8] was characterised by a dissociation constant (Kd) of 100 µM.
Consider `CC(C)n1nccc1-c1ncccc1COc1cccc(O)c1C=O` [Voxelotor, reference compound], for which, on Hb [1], the “Hb Modification (%)” value worked out at 92.3 ± 6.8%. The AUC(0-inf) in data set [4] (setting [10]) is 2.6e+06 ng·h/mL and 7620 µM·h. In addition, the Cmax in data set [4] (setting [11]) was 185000 ng/mL and 548 µM. Also, the AUC(0-inf) in data set [4] (setting [12]) was 2.3e+06 ng·h/mL and 6760 µM·h. In data set [4] (setting [13]), the Cmax was 142000 ng/mL and 422 µM. Moreover, the “increase in Hb concentrations” value in data set [9] is on record as “at least 1 g/dl”. Moreover, at Hb [5], the “Fixed Adducts (%)” value was determined as 77.0 ± 3.8%, the “Unfixed Adduct (%)” value came to 80.3 ± 6.3% and the “Partitioning Ratio (%)” value is reported as 96.1 ± 3.7%. In addition, in [7], the “polymer destabilizing effect / sickle inhibition in anoxia (in words)” value is given as “did not demonstrate any sickle inhibition in anoxic conditions”.

Source of the values: patent US20240109843A1, “BENZALDEHYDE COMPOUNDS WITH DIRECT POLYMER DESTABILIZING EFFECTS TO TREAT SICKLE CELL DISEASE” (VIRGINIA COMMONWEALTH UNIVERSITY, priority 2018, published 2024).
